{"source": "ChEMBL document CHEMBL1141932", "about": "(J Med Chem, 2005)", "key": {"Oryctolagus cuniculus [1]": {"species": "Oryctolagus cuniculus", "assay": "Inhibition of chymotrypsin-like (CT-L) activity of rabbit 20S proteasome", "type": "functional"}, "Oryctolagus cuniculus [2]": {"species": "Oryctolagus cuniculus", "assay": "Inhibition of trypsin-like (T-L) activity of rabbit 20S proteasome", "type": "functional"}, "HEK293": {"system": "HEK293", "assay": "Inhibition of NF-kB activation in HEK293 cells", "type": "functional, cell-based", "settings": "Homo sapiens"}, "RPMI-8226": {"system": "RPMI-8226", "assay": "Cytotoxic activity against RPMI 8226 cells", "type": "functional, cell-based", "settings": "Homo sapiens"}, "Oryctolagus cuniculus [3]": {"species": "Oryctolagus cuniculus", "assay": "Inhibition of caspase-like (CA-L) activity of rabbit 20S proteasome", "type": "functional"}}, "data": [{"compound": "CC[C@@]12OC(=O)[C@]1([C@@H](O)[C@@H]1C=CCCC1)NC(=O)[C@@H]2CCCl", "values": [{"measurement": "IC50", "setting": "Oryctolagus cuniculus [1]", "value": 2.1, "unit": "µM"}, {"measurement": "IC50", "setting": "Oryctolagus cuniculus [2]", "value": 3.3, "unit": "µM"}, {"measurement": "IC50", "setting": "HEK293", "value": 3.6, "unit": "µM"}, {"measurement": "IC50", "setting": "RPMI-8226", "value": 1.9, "unit": "µM"}, {"measurement": "IC50", "setting": "Oryctolagus cuniculus [3]", "value": "> 20", "unit": "µM"}]}, {"compound": "C[C@@]12OC(=O)[C@]1([C@@H](O)[C@@H]1C=CCCC1)NC(=O)[C@@H]2CCN=[N+]=[N-]", "values": [{"measurement": "IC50", "setting": "Oryctolagus cuniculus [1]", "value": 0.0077, "unit": "µM"}, {"measurement": "IC50", "setting": "Oryctolagus cuniculus [2]", "value": 0.21, "unit": "µM"}, {"measurement": "IC50", "setting": "HEK293", "value": 1, "unit": "µM"}, {"measurement": "IC50", "setting": "RPMI-8226", "value": 5.5, "unit": "µM"}, {"measurement": "IC50", "setting": "Oryctolagus cuniculus [3]", "value": 0.56, "unit": "µM"}]}, {"compound": "CCC[C@H]1C(=O)N[C@@]2([C@@H](O)[C@@H]3C=CCCC3)C(=O)O[C@@]12C", "values": [{"measurement": "IC50", "setting": "Oryctolagus cuniculus [1]", "value": 0.024, "unit": "µM"}, {"measurement": "IC50", "setting": "Oryctolagus cuniculus [2]", "value": 1.1, "unit": "µM"}, {"measurement": "IC50", "setting": "HEK293", "value": 1.9, "unit": "µM"}, {"measurement": "IC50", "setting": "RPMI-8226", "value": 6.3, "unit": "µM"}, {"measurement": "IC50", "setting": "Oryctolagus cuniculus [3]", "value": 1.2, "unit": "µM"}]}, {"compound": "C[C@@]12OC(=O)[C@]1([C@@H](O)C1CCCCC1)NC(=O)[C@@H]2CCCl", "values": [{"measurement": "IC50", "setting": "Oryctolagus cuniculus [1]", "value": 0.02, "unit": "µM"}, {"measurement": "IC50", "setting": "Oryctolagus cuniculus [2]", "value": 0.25, "unit": "µM"}, {"measurement": "IC50", "setting": "HEK293", "value": 0.071, "unit": "µM"}, {"measurement": "IC50", "setting": "RPMI-8226", "value": 0.052, "unit": "µM"}, {"measurement": "IC50", "setting": "Oryctolagus cuniculus [3]", "value": 1.4, "unit": "µM"}]}, {"compound": "C[C@@]12OC(=O)[C@]1([C@@H](O)[C@H]1CCC[C@H](Cl)[C@H]1O)NC(=O)[C@@H]2CCCl", "values": [{"measurement": "IC50", "setting": "Oryctolagus cuniculus [1]", "value": 8.2, "unit": "µM"}, {"measurement": "IC50", "setting": "Oryctolagus cuniculus [2]", "value": "> 20", "unit": "µM"}, {"measurement": "IC50", "setting": "HEK293", "value": "> 20", "unit": "µM"}, {"measurement": "IC50", "setting": "RPMI-8226", "value": "> 20", "unit": "µM"}, {"measurement": "IC50", "setting": "Oryctolagus cuniculus [3]", "value": "> 20", "unit": "µM"}]}, {"compound": "C[C@@]12OC(=O)[C@]1(C(=O)[C@@H]1C=CCCC1)NC(=O)[C@@H]2CCCl", "values": [{"measurement": "IC50", "setting": "Oryctolagus cuniculus [1]", "value": 8.2, "unit": "µM"}, {"measurement": "IC50", "setting": "Oryctolagus cuniculus [2]", "value": 10, "unit": "µM"}, {"measurement": "IC50", "setting": "HEK293", "value": "> 20", "unit": "µM"}, {"measurement": "IC50", "setting": "RPMI-8226", "value": "> 20", "unit": "µM"}, {"measurement": "IC50", "setting": "Oryctolagus cuniculus [3]", "value": "> 20", "unit": "µM"}]}, {"compound": "C[C@@]12OC(=O)[C@]1([C@@H](O)[C@H]1CCC[C@H]3O[C@@H]13)NC(=O)[C@@H]2CCCl", "values": [{"measurement": "IC50", "setting": "Oryctolagus cuniculus [1]", "value": 0.0063, "unit": "µM"}, {"measurement": "IC50", "setting": "Oryctolagus cuniculus [2]", "value": 0.092, "unit": "µM"}, {"measurement": "IC50", "setting": "HEK293", "value": 0.034, "unit": "µM"}, {"measurement": "IC50", "setting": "RPMI-8226", "value": 0.032, "unit": "µM"}, {"measurement": "IC50", "setting": "Oryctolagus cuniculus [3]", "value": 0.57, "unit": "µM"}]}, {"compound": "C[C@@]12OC(=O)[C@]1(C(O)[C@@H]1C=CCCC1)NC(=O)[C@@H]2CCCl", "note": "(some centres not stated)", "values": [{"measurement": "IC50", "setting": "Oryctolagus cuniculus [1]", "value": "> 20", "unit": "µM"}, {"measurement": "IC50", "setting": "Oryctolagus cuniculus [2]", "value": "> 20", "unit": "µM"}, {"measurement": "IC50", "setting": "HEK293", "value": "> 20", "unit": "µM"}, {"measurement": "IC50", "setting": "RPMI-8226", "value": "> 20", "unit": "µM"}, {"measurement": "IC50", "setting": "Oryctolagus cuniculus [3]", "value": "> 20", "unit": "µM"}]}, {"compound": "C[C@H]1C(=O)N[C@@]2([C@@H](O)[C@@H]3C=CCCC3)C(=O)O[C@@]12C", "values": [{"measurement": "IC50", "setting": "Oryctolagus cuniculus [1]", "value": 0.0077, "unit": "µM"}, {"measurement": "IC50", "setting": "Oryctolagus cuniculus [2]", "value": 0.34, "unit": "µM"}, {"measurement": "IC50", "setting": "HEK293", "value": 0.85, "unit": "µM"}, {"measurement": "IC50", "setting": "RPMI-8226", "value": 8.5, "unit": "µM"}, {"measurement": "IC50", "setting": "Oryctolagus cuniculus [3]", "value": 1.2, "unit": "µM"}]}, {"compound": "C[C@@]12OC(=O)[C@]1([C@@H](O)[C@@H]1C=CCCC1)NC(=O)C2CCCl", "note": "(single isomer, unassigned)", "values": [{"measurement": "IC50", "setting": "Oryctolagus cuniculus [1]", "value": 0.33, "unit": "µM"}, {"measurement": "IC50", "setting": "Oryctolagus cuniculus [2]", "value": 2.5, "unit": "µM"}, {"measurement": "IC50", "setting": "HEK293", "value": 3.8, "unit": "µM"}, {"measurement": "IC50", "setting": "RPMI-8226", "value": 1.9, "unit": "µM"}, {"measurement": "IC50", "setting": "Oryctolagus cuniculus [3]", "value": "> 20", "unit": "µM"}]}, {"compound": "C[C@@]12OC(=O)[C@]1(C(O)[C@H]1CCC[C@@H]3OC13)NC(=O)[C@@H]2CCCl", "note": "(single isomer, unassigned)", "values": [{"measurement": "IC50", "setting": "Oryctolagus cuniculus [1]", "value": 0.091, "unit": "µM"}, {"measurement": "IC50", "setting": "Oryctolagus cuniculus [2]", "value": 0.77, "unit": "µM"}, {"measurement": "IC50", "setting": "HEK293", "value": 0.3, "unit": "µM"}, {"measurement": "IC50", "setting": "RPMI-8226", "value": 0.32, "unit": "µM"}, {"measurement": "IC50", "setting": "Oryctolagus cuniculus [3]", "value": 3.2, "unit": "µM"}]}, {"compound": "C[C@@]12OC(=O)C1([C@@H](O)[C@@H]1C=CCCC1)NC(=O)[C@@H]2CCO", "note": "(single isomer, unassigned) [hydroxysalinosporamide A]", "values": [{"measurement": "IC50", "setting": "Oryctolagus cuniculus [1]", "value": 0.008, "unit": "µM"}, {"measurement": "IC50", "setting": "Oryctolagus cuniculus [2]", "value": 0.8, "unit": "µM"}, {"measurement": "IC50", "setting": "HEK293", "value": 2.6, "unit": "µM"}, {"measurement": "IC50", "setting": "RPMI-8226", "value": "> 20", "unit": "µM"}, {"measurement": "IC50", "setting": "Oryctolagus cuniculus [3]", "value": 2.5, "unit": "µM"}]}, {"compound": "C[C@@]12OC(=O)[C@]1([C@@H](O)[C@@H]1C=CCCC1)NC(=O)[C@@H]2CCBr", "note": "[BROMOSALINOSPORAMIDE]", "values": [{"measurement": "IC50", "setting": "Oryctolagus cuniculus [1]", "value": 0.0026, "unit": "µM"}, {"measurement": "IC50", "setting": "Oryctolagus cuniculus [2]", "value": 0.014, "unit": "µM"}, {"measurement": "IC50", "setting": "HEK293", "value": 0.014, "unit": "µM"}, {"measurement": "IC50", "setting": "RPMI-8226", "value": 0.0074, "unit": "µM"}, {"measurement": "IC50", "setting": "Oryctolagus cuniculus [3]", "value": 0.29, "unit": "µM"}]}, {"compound": "C[C@@]12OC(=O)[C@]1([C@@H](O)[C@@H]1C=CCCC1)NC(=O)[C@@H]2CCI", "note": "[IODOSALINOSPORAMIDE]", "values": [{"measurement": "IC50", "setting": "Oryctolagus cuniculus [1]", "value": 0.0028, "unit": "µM"}, {"measurement": "IC50", "setting": "Oryctolagus cuniculus [2]", "value": 0.013, "unit": "µM"}, {"measurement": "IC50", "setting": "HEK293", "value": 0.01, "unit": "µM"}, {"measurement": "IC50", "setting": "RPMI-8226", "value": 0.0068, "unit": "µM"}, {"measurement": "IC50", "setting": "Oryctolagus cuniculus [3]", "value": 0.41, "unit": "µM"}]}, {"compound": "C[C@@]12OC(=O)[C@]1([C@@H](O)[C@@H]1C=CCCC1)NC(=O)[C@@H]2CCCl", "note": "[MARIZOMIB]", "values": [{"measurement": "IC50", "setting": "Oryctolagus cuniculus [1]", "value": 0.0026, "unit": "µM"}, {"measurement": "IC50", "setting": "HEK293", "value": 0.011, "unit": "µM"}, {"measurement": "IC50", "setting": "RPMI-8226", "value": 0.0082, "unit": "µM"}, {"measurement": "IC50", "setting": "Oryctolagus cuniculus [3]", "value": 0.43, "unit": "µM"}]}, {"compound": "CC(C)[C@H](O)[C@@]12NC(=O)[C@H](C)[C@@H]1OC2=O", "note": "[OMURALIDE]", "values": [{"measurement": "IC50", "setting": "Oryctolagus cuniculus [1]", "value": 0.057, "unit": "µM"}, {"measurement": "IC50", "setting": "Oryctolagus cuniculus [2]", "value": 0.54, "unit": "µM"}, {"measurement": "IC50", "setting": "HEK293", "value": 1.6, "unit": "µM"}, {"measurement": "IC50", "setting": "RPMI-8226", "value": 3.3, "unit": "µM"}, {"measurement": "IC50", "setting": "Oryctolagus cuniculus [3]", "value": "> 10", "unit": "µM"}]}, {"compound": "CC[C@H]1C(=O)N[C@@]2([C@@H](O)[C@@H]3C=CCCC3)C(=O)O[C@@]12C", "note": "[SALINOSPORAMIDE B]", "values": [{"measurement": "IC50", "setting": "Oryctolagus cuniculus [1]", "value": 0.027, "unit": "µM"}, {"measurement": "IC50", "setting": "Oryctolagus cuniculus [2]", "value": 0.64, "unit": "µM"}, {"measurement": "IC50", "setting": "HEK293", "value": 1.6, "unit": "µM"}]}]}
